The source made the active and inactive calls. No cut-off for these calls is given here.
Key:
Homo sapiens [1] = species on record: Homo sapiens; assay: Binding affinity to human d[AGGG(TTAGGG)3] telomeric G-quadruplex DNA by fluorescence-based assay
Homo sapiens [2] = species on record: Homo sapiens; assay: Binding affinity to human telomeric G-quadruplex DNA
[3] = Binding affinity to d(G4C4)2 duplex DNA (unknown origin) by fluorescence-based assay
Homo sapiens [4] = species on record: Homo sapiens; assay: Binding affinity to human d[AGGG(TTAGGG)3] telomeric G-quadruplex DNA after 1 to 12 hrs by titrimetric analysis in presence of potassium ions
Homo sapiens [5] = species on record: Homo sapiens; assay: Binding affinity to human d[AGGG(TTAGGG)3] telomeric G-quadruplex DNA after 1 to 12 hrs by titrimetric analysis in presence of sodium ions
Homo sapiens [6] = species on record: Homo sapiens; assay: Selectivity ratio of binding affinity for human d[AGGG(TTAGGG)3] telomeric G-quadruplex DNA in presence of sodium ions to binding affinity for human d[AGGG(TTAGGG)3] telomeric G-quadruplex DNA in presence of potassium ions

Row | SMILES | Activity (Homo sapiens [1]) | other results
1 | NC[C@@H]1O[C@H](O[C@H]2[C@@H](O)[C@H](O[C@@H]3[C@@H](O)[C@H](N)C[C@H](N)[C@H]3O[C@H]3O[C@H](CN)[C@@H](O)[C@H](O)[C@H]3N)O[C@@H]2CSCCNC(=S)NCCCNC(=O)c2ccc3c(c2)C(=O)c2ccccc2C3=O)[C@H](N)[C@@H](O)[C@@H]1O | – | Ka (Homo sapiens [2]): 1.25 ×10⁷ /M
2 | NC[C@@H]1O[C@H](O[C@H]2[C@@H](O)[C@H](O[C@@H]3[C@@H](O)[C@H](N)C[C@H](N)[C@H]3O[C@H]3O[C@H](CN)[C@@H](O)[C@H](O)[C@H]3N)O[C@@H]2CNC(=S)NCCNC(=S)NCc2ccc3c(c2)C(=O)c2ccccc2C3=O)[C@H](N)[C@@H](O)[C@@H]1O | inactive | –
3 | NC[C@@H]1O[C@H](O[C@H]2[C@@H](O)[C@H](O[C@@H]3[C@@H](O)[C@H](N)C[C@H](N)[C@H]3O[C@H]3O[C@H](CN)[C@@H](O)[C@H](O)[C@H]3N)O[C@@H]2CNC(=S)Nc2ccc3c(c2)C(=O)c2ccccc2C3=O)[C@H](N)[C@@H](O)[C@@H]1O | inactive | –
4 | NC[C@@H]1O[C@H](O[C@H]2[C@@H](O)[C@H](O[C@@H]3[C@@H](O)[C@H](N)C[C@H](N)[C@H]3O[C@H]3O[C@H](CN)[C@@H](O)[C@H](O)[C@H]3N)O[C@@H]2CSCCNC(=S)NCCCOCCCCOCCCNC(=S)NCc2ccc3c(c2)C(=O)c2ccccc2C3=O)[C@H](N)[C@@H](O)[C@@H]1O | inactive | –
5 | CN1/C(=C/c2cc[n+](CCCCC(=O)NCCSC[C@H]3O[C@@H](O[C@@H]4[C@@H](O)[C@H](N)C[C@H](N)[C@H]4O[C@H]4O[C@H](CN)[C@@H](O)[C@H](O)[C@H]4N)[C@H](O)[C@@H]3O[C@H]3O[C@@H](CN)[C@@H](O)[C@H](O)[C@H]3N)c3ccccc23)Sc2ccccc21 | – | Activity [3]: Active; K (Homo sapiens [4]): 9.3 ×10⁶ /M; K (Homo sapiens [5]): 9.6 ×10⁷ /M; Selectivity ratio (Homo sapiens [6]): 10
6 | NC[C@@H]1O[C@H](O[C@H]2[C@@H](O)[C@H](O[C@@H]3[C@@H](O)[C@H](N)C[C@H](N)[C@H]3O[C@H]3O[C@H](CN)[C@@H](O)[C@H](O)[C@H]3N)O[C@@H]2CSCCNC(=S)NCCNC(=S)NCc2ccc3c(c2)C(=O)c2ccccc2C3=O)[C@H](N)[C@@H](O)[C@@H]1O | inactive | –
7 | NC[C@@H]1O[C@H](O[C@H]2[C@@H](O)[C@H](O[C@@H]3[C@@H](O)[C@H](N)C[C@H](N)[C@H]3O[C@H]3O[C@H](CN)[C@@H](O)[C@H](O)[C@H]3N)O[C@@H]2CNC(=S)NCCCCCCCCCCNC(=S)NCc2ccc3c(c2)C(=O)c2ccccc2C3=O)[C@H](N)[C@@H](O)[C@@H]1O | inactive | –
8 | NC[C@@H]1O[C@H](O[C@H]2[C@@H](O)[C@H](O[C@@H]3[C@@H](O)[C@H](N)C[C@H](N)[C@H]3O[C@H]3O[C@H](CN)[C@@H](O)[C@H](O)[C@H]3N)O[C@@H]2CNC(=S)NCCCNC(=S)NCc2ccc3c(c2)C(=O)c2ccccc2C3=O)[C@H](N)[C@@H](O)[C@@H]1O | inactive | –

Second part, led by results:

Row | Activity (Homo sapiens [1]) | SMILES | other results
9 | inactive | NC[C@@H]1O[C@H](O[C@H]2[C@@H](O)[C@H](O[C@@H]3[C@@H](O)[C@H](N)C[C@H](N)[C@H]3O[C@H]3O[C@H](CN)[C@@H](O)[C@H](O)[C@H]3N)O[C@@H]2CSCCNC(=S)NCCCNC(=S)NCc2ccc3c(c2)C(=O)c2ccccc2C3=O)[C@H](N)[C@@H](O)[C@@H]1O | –
10 | inactive | NC[C@@H]1O[C@H](O[C@H]2[C@@H](O)[C@H](O[C@@H]3[C@@H](O)[C@H](N)C[C@H](N)[C@H]3O[C@H]3O[C@H](CN)[C@@H](O)[C@H](O)[C@H]3N)O[C@@H]2CNC(=S)NCCCOCCCCOCCCNC(=S)NCc2ccc3c(c2)C(=O)c2ccccc2C3=O)[C@H](N)[C@@H](O)[C@@H]1O | –
11 | inactive | NC[C@@H]1O[C@H](O[C@H]2[C@@H](O)[C@H](O[C@@H]3[C@@H](O)[C@H](N)C[C@H](N)[C@H]3O[C@H]3O[C@H](CN)[C@@H](O)[C@H](O)[C@H]3N)O[C@@H]2CSCCNC(=S)NCCCCCCCCCCNC(=S)NCc2ccc3c(c2)C(=O)c2ccccc2C3=O)[C@H](N)[C@@H](O)[C@@H]1O | –
12 | inactive | NCC1O[C@H](O[C@H]2[C@@H](O)[C@H](O[C@@H]3[C@@H](O)[C@H](N)C[C@H](N)[C@H]3O[C@H]3O[C@H](CN)[C@@H](O)[C@H](O)[C@H]3N)O[C@@H]2CNC(=S)NCc2ccc3c(c2)C(=O)c2ccccc2C3=O)[C@H](N)[C@@H](O)[C@@H]1O (single isomer, unassigned) | –
13 | inactive | NC[C@@H]1O[C@H](O[C@H]2[C@@H](O)[C@H](O[C@@H]3[C@@H](O)[C@H](N)C[C@H](N)[C@H]3O[C@H]3O[C@H](CN)[C@@H](O)[C@H](O)[C@H]3N)O[C@@H]2CSCCNC(=S)Nc2ccc3c(c2)C(=O)c2ccccc2C3=O)[C@H](N)[C@@H](O)[C@@H]1O | –
14 | inactive | NC[C@@H]1O[C@H](O[C@H]2[C@@H](O)[C@H](O[C@@H]3[C@@H](O)[C@H](N)C[C@H](N)[C@H]3O[C@H]3O[C@H](CN)[C@@H](O)[C@H](O)[C@H]3N)O[C@@H]2CSCCNC(=S)NCc2ccc3c(c2)C(=O)c2ccccc2C3=O)[C@H](N)[C@@H](O)[C@@H]1O | –

Reference: ChEMBL document CHEMBL3091391, “An assay for human telomeric G-quadruplex DNA binding drugs” (Bioorg Med Chem Lett, 2013)
